What was measured:
[1] = tested on: Lorist6 (bacteriophage λ origin vector); assay: Effect of over-expression on Lorist6 replication; format: cell-based, E. coli; conditions: over-expression from pJC vectors in TG1 or SV1
Protocol: Effect on Lorist6 replication of over-expressing of MC7. The effect of over-expressing Gp31 proteins from pJC vector series on the replication of the bacteriophage λ origin vector, Lorist6 (Gibson, T. J., Rosenthal, A. & Waterston, R. H. (1987) Gene 53, 283-286) in TG1 (Gibson, T. J. (1984) Ph.D. thesis, University of Cambridge, U.K) or SV1 (Georgopoulos, C., Hendrix, R. W., Casjens, S. R. & Kaiser, A. D. (1973) J. Mol. Biol. 76, 45-60) cells was determined essentially as described (Chatellier, J., Hill, F., Lund, P. & Fersht, A. R. (1998) Proc. Natl. Acad. Sci. U.S.A. 95, 9861-9866).

E. coli SV2 groEL44 = assay: In vivo complementation of thermosensitive groEL mutant at 43° C., strain SV2; format: cell-based; conditions: pJC plasmid, relative to growth at 30° C.
Protocol: (§1) In vivo complementation experiments. Complementation experiments were performed by transforming electro-competent SV2 or SV6 cells with the pJC series of expression vectors and plating an aliquot of the transformation reactions directly at 43° C. The percentage of viable cells relative to the growth at 30° C. was determined. A representative number of clones which grew at 43° C. were incubated in absence of any selective markers at permissive temperature. After prolonged growth the loss of the pJC plasmids and the ts phenotype were verified. Each experiment was performed in duplicate. Plasmids carrying no groE genes or encoding the GroE proteins were used as negative or positive controls, respectively.

[2] = tested on: AI90 (ΔgroEL::kan^R) [pBADEL] E. coli strain; assay: Plating ability of transformed AI90 (ΔgroEL::kan^R) [pBAD-EL] at 37° C. on depletion of GroEL; format: cell-based
Protocol: AI90 (ΔgroEL::kan^R) [pBAD-EL] cells were transformed with the pJC vector series. Transformants were selected at 37° C. on LB supplemented with 50 μg.ml^−1 of kanamycin, 120 μg.mL^−1 of ampicillin, 25 μg.mL^1 of chloramphenicol and 0.2% L(+)arabinose. Depletion of GroEL protein was analysed at 37° C. by plating the same quantity of AI90 [pBAD-EL+pJC vectors] cells on LB plates containing 1% D(+)glucose or various amount of arabinose.
Each experiment was performed in triplicate. Plasmids carrying no groE genes or encoding the GroE proteins were used as negative or positive controls, respectively.

E. coli SV6 groEL673 = assay: In vivo complementation of thermosensitive groEL mutant at 43° C., strain SV6; format: cell-based; conditions: pJC plasmid, relative to growth at 30° C.
Protocol: as §1

GroES = GroES (Escherichia coli, UniProt P0A6F9); conditions: read-out: apparent dissociation constant for the formation of the GroEL-GroES complex; cited from earlier work
Chain of GroES (P0A6F9 whole entry): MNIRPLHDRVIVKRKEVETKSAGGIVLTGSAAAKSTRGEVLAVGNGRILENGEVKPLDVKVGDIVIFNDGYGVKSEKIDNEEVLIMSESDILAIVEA

SV2 [pBADGroES] = conditions: SV2 over-expressing GroES from pBAD

Substance: GroEL (1-548): E. coli molecular chaperone, 14 subunits of 57.5 kD in two seven membered rings [reference compound]
- Replication of the Lorist6 plasmid [1]: inhibit the replication of the Lorist6 plasmid
- Relative colony forming ability, SV2 groEL44 (E. coli SV2 groEL44): 1
- Plating ability ([2]; 0.00 % L(+)arabinose): +++ (growth identical to that in presence of 0.2% L(+)arabinose (100%), in terms of both number and size)
- Plating ability ([2]; 0.01 % L(+)arabinose): +++ (growth identical to that in presence of 0.2% L(+)arabinose (100%), in terms of both number and size)
- Plating ability ([2]; 0.10 % L(+)arabinose): +++ (growth identical to that in presence of 0.2% L(+)arabinose (100%), in terms of both number and size)
- Plating ability ([2]; 0.15 % L(+)arabinose): +++ (growth identical to that in presence of 0.2% L(+)arabinose (100%), in terms of both number and size)
- Relative colony forming ability, SV6 groEL673 (E. coli SV6 groEL673): 1
- Kd (GroES): 1 µM
- Plaque size and number (SV2 [pBADGroES]): do not completely eliminate them

Source: patent US20020137891A1, “Protein scaffold and its use to multimerise monomeric polypeptides” (priority 1999, published 2002)
